According to publication PMC2748117 (Journal of medicinal chemistry, 2008):

Tests used:
[1] = system: human folylpolyglutamate synthetase; conditions: ref [23]; cited from earlier work
KB cells [2] = test: Colony formation and reversibility assay with KB cells; conditions: 0.1 to 100 nM drug, 10 days
CCRF-CEM leukemia cell = conditions: supraphysiologic folate; protected by hypoxanthine, not thymidine; ref [22], [23]; cited from earlier work
human DHFR = conditions: ref [22], [23]; cited from earlier work
KB cells [3] = test: Growth inhibition of KB tumor cells, with folate/nucleoside/AICA protection; type: cell-based, human
human TS = conditions: ref [22], [23]; cited from earlier work
KB cells [4] = test: Apoptosis assay, Annexin V-FITC flow cytometry; type: cell-based, human; conditions: 1 µM, 24 h, Annexin V positive cells
human RFC = test: Inhibition of RFC-mediated [3H]MTX uptake in PC43-10 cells; type: cell-based; conditions: unlabeled compound 10 µM, 0.5 µM [3H]MTX, 2 min, 37°C

SMILES	Substrate activity for polyglutamylation [1]	Inhibition of colony formation, continuous exposure (KB cells [2])	Inhibition of CCRF-CEM leukemia cell growth (CCRF-CEM leukemia cell)	Inhibition of purified human DHFR (human DHFR)	Effect of thymidine on growth inhibitory activity toward KB cells (KB cells [3]; 10 µM thymidine)	Effect of adenosine on growth inhibition of KB cells (KB cells [3]; 60 µM adenosine)	Protection by AICA from growth inhibitory effects in KB cells (KB cells [3]; 192 µM AICA)	Inhibition of purified human TS (human TS)	Increase of IC50 between 2 nM and 20 nM LCV (KB cells [3]; KB cells, folate-free media, 20 nM versus 2 nM leucovorin)	Increase of IC50 at 40 nM LCV (KB cells [3]; KB cells, folate-free media, 40 nM versus 2 nM leucovorin) [fold]	Apoptosis level relative to the antifolate drugs (KB cells [4]) [factor]	Inhibition of [3H]MTX uptake (human RFC) [%]
Nc1nc2[nH]c(CCCc3ccc(C(=O)N[C@@H](CCC(=O)O)C(=O)O)cc3)cc2c(=O)[nH]1 [Compound 2]	excellent substrates	more potent inhibitors than either compound 4 or MTX	modest inhibitors	poor inhibitors	no effect	completely reversed	completely protected	poor inhibitors				
Nc1nc2[nH]c(CCCCc3ccc(C(=O)N[C@@H](CCC(=O)O)C(=O)O)cc3)cc2c(=O)[nH]1 [Compound 3, N-{4-[4-(2-Amino-4-oxo-4,7-dihydro-3H-pyrrolo[2,3-d]pyrimidin-6-yl)butyl]benzoyl}-L-glutamic Acid]	excellent substrates	more potent inhibitors than either compound 4 or MTX	modest inhibitors	poor inhibitors				poor inhibitors	approximately 3 fold	~6		
COc1cccc2c1C(=O)c1c(O)c3c(c(O)c1C2=O)C[C@@](O)(C(C)=O)C[C@@H]3O[C@H]1C[C@H](N)[C@H](O)[C@H](C)O1 [daunorubicin]											4	
Nc1nc(=O)c2nc(CNc3ccc(C(=O)N[C@@H](CCC(=O)O)C(=O)O)cc3)cnc2[nH]1 [folic acid]												< 20
